Measured values as given in BigSolDB 2.1.

CCCCc1nc(Cl)c(CO)n1Cc1ccc(-c2ccccc2-c2nnn[n-]2)cc1.[K+]
solubility (mole fraction)
Details | in cyclohexane | in ethanol | in ethyl acetate | in isopropanol | in methanol | in n-butyl acetate | in n-pentanol | in n-propanol
293.15 K | 3.4e-05 | 0.0381 | 0.00251 | 0.0027 | 0.0277 | 0.00271 | 0.0446 | 0.026
303.15 K | 2.87e-05 | 0.0473 | 0.00152 | 0.00279 | 0.0375 | 0.00238 | 0.0311 | 0.0272
313.15 K | 3.05e-05 | 0.0547 | 0.00252 | 0.00413 | 0.0445 | 0.000968 | 0.0287 | 0.0299
323.15 K | 2.72e-05 | 0.0702 | 0.00138 | 0.00547 | 0.0483 | 0.00121 | 0.0234 | 0.0376
333.15 K | 2.88e-05 | 0.0739 | 0.00288 | 0.00696 | 0.0508 | 0.00193 | 0.0205 | 0.0452
343.15 K | 2.59e-05 | 0.0785 | 0.00279 | 0.0117 | 0.0533 | 0.000907 | 0.0218 | 0.0499
